Consider 15 compounds from patent US20100210649A1, “PYRIDAZINONES AND FURAN-CONTAINING COMPOUNDS” (Sloan-Kettering Institute for Cancer Research, priority 2006, published 2010).

Structures are written as SMILES. Where two headings read alike, the source gives them in different places.

One may read the inhibition as the drop in the measured response relative to a control, in per cent.

Holding throughout (assay type): cell-based, human
Assay [1] deals with H2030. Kind of assay: Non Small Cell Lung Cancer proliferation assay (Alamar Blue reduction), H2030. Particulars: Homo sapiens, NCI-H2030, primary screening, 10 μM compound in 1% DMSO (v/v). Summed up:
(§1)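 Proliferation after 48 h compound exposure (1% DMSO final, 37 °C) was read by Alamar Blue reduction over an additional 48 h, fluorescence at 530 nm excitation/590 nm emission. Dose-response runs seeded 250 cells/well; DMSO-only wells as high control.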
Background: The colour change of resazurin is a common sign of viable cells or microbes.

Assay [2] has as its system H1650. The assay can be described thus: Non Small Cell Lung Cancer proliferation assay (Alamar Blue reduction), H1650. Particulars: Homo sapiens, NCI-H1650, primary screening, 10 μM compound in 1% DMSO (v/v). Summed up:
as §1

The subject of assay [3] is H1975. The assay can be described thus: Non Small Cell Lung Cancer proliferation assay (Alamar Blue reduction), H1975. The settings on record: Homo sapiens, NCI-H1975, primary screening, 10 μM compound in 1% DMSO (v/v). Summed up: as §1
In assay [4] the test system is H3255. The assay can be described thus: Non Small Cell Lung Cancer proliferation assay (Alamar Blue reduction), H3255. The settings on record: Homo sapiens, NCI-H3255, primary screening, 10 μM compound in 1% DMSO (v/v). Summed up: as §1
The mark [5] stands for this setting: read-out: percentage inhibition H2030.
[6] abbreviates: read-out: percentage inhibition H1650.
The mark [7] stands for this setting: read-out: percentage inhibition H1975.
[8] abbreviates: read-out: percentage inhibition H3255.
Where [9] appears, read: H2030, read-out: PRIMARY HTS [%] H2030 (percentage inhibition).
The mark [10] stands for this setting: H1650, read-out: PRIMARY HTS [%] H1650 (percentage inhibition).
Setting [11] is: H1975, read-out: PRIMARY HTS [%] H1975 (percentage inhibition).
Where [12] appears, read: H3255, read-out: PRIMARY HTS [%] H3255 (percentage inhibition).

For the compound `COc1ccc(-n2nc(C(=O)c3ccco3)cc(-c3nc4ccccc4[nH]3)c2=N)cc1` [compound 182721], the inhibition at 10 µM in assay [1] (setting [5]) stood at 11%; in assay [2] (setting [6]) it was 8%; in assay [3] (setting [7]), 9%; in assay [4] (setting [8]), 4%.

For `N=c1c(-c2nc3ccccc3[nH]2)cc(C(=O)c2cccs2)nn1-c1ccccc1` [compound 186924], the inhibition at 10 µM in assay [1] (setting [5]) came to 1%; in assay [2] (setting [6]), 7%; in assay [3] (setting [7]), 14%; in assay [4] (setting [8]) it was 8%.

As for `O=c1ccc(O)nn1-c1ccccc1` [compound 189286], the inhibition at 10 µM in assay [1] (setting [5]) was 5%; in assay [2] (setting [6]) it was 0%; in assay [3] (setting [7]) it was 9%; in assay [4] (setting [8]), -15%.

In the case of `Cc1ccc(C(=O)N2CCN(c3ccc(NC(=O)c4ccco4)cc3)CC2)cc1` [compound 95436], the inhibition at 10 µM is 2% in assay [1] (setting [9]), 2% in assay [2] (setting [10]), -12% in assay [3] (setting [11]) and -3% in assay [4] (setting [12]).

For `Cc1ccc(-n2nc(C(=O)O)c(/C=C/c3ccc(Cl)cc3Cl)c(C#N)c2=O)cc1C` [compound 227626], the inhibition at 10 µM in assay [1] (setting [5]) is 0%; in assay [2] (setting [6]), -15%; in assay [3] (setting [7]) it was -14%; in assay [4] (setting [8]), 71%.

With `O=C(Nc1ccc(N2CCN(Cc3ccccc3Cl)CC2)cc1)c1ccco1` [compound 92553], the inhibition at 10 µM in assay [1] (setting [9]) was 5%; in assay [2] (setting [10]), 2%; in assay [3] (setting [11]), -3%; in assay [4] (setting [12]), 1%.

`O=C(Nc1cccc([N+](=O)[O-])c1)c1ccco1` [compound 87246]: the inhibition at 10 µM in assay [1] (setting [9]) is 9%; in assay [2] (setting [10]), 8%; in assay [3] (setting [11]), -3%; in assay [4] (setting [12]), 5%.

With `O=c1c(SCc2ccccc2)c(N2CCOCC2)cnn1-c1ccccc1` [compound 224770], the inhibition at 10 µM was -8% in assay [1] (setting [5]), 65% in assay [2] (setting [6]), -8% in assay [3] (setting [7]) and 24% in assay [4] (setting [8]).

As to `O=c1ccc(Cl)nn1-c1ccccc1` [compound 195149], the inhibition at 10 µM was -5% in assay [1] (setting [5]), -4% in assay [2] (setting [6]), 11% in assay [3] (setting [7]) and -19% in assay [4] (setting [8]).

Turning to `COc1cnn(-c2ccccc2)c(=O)c1N(C)C` [compound 103971], the inhibition at 10 µM is 1% in assay [1] (setting [5]), 5% in assay [2] (setting [6]), -10% in assay [3] (setting [7]) and -1% in assay [4] (setting [8]).

`O=[N+]([O-])c1ccc(CN2CCN(Cc3ccccc3)CC2)o1` [compound 100507]: the inhibition at 10 µM in assay [1] (setting [9]) is 7%; in assay [2] (setting [10]) it was -3%; in assay [3] (setting [11]), -15%; in assay [4] (setting [12]) it was 1%.

Take `O=c1c(SCc2ccc(Cl)cc2Cl)c(SC2CCCCO2)cnn1-c1ccccc1` (stereo not drawn) [compound 224771]: the inhibition at 10 µM in assay [1] (setting [5]) is 3%; in assay [2] (setting [6]), -12%; in assay [3] (setting [7]), -21%; in assay [4] (setting [8]) it was 30%.

Regarding `COc1ccc(Sc2cnn(-c3ccccc3)c(=O)c2Cl)cc1` [compound 181862], the inhibition at 10 µM in assay [1] (setting [5]) came out at 9%; in assay [2] (setting [6]), 7%; in assay [3] (setting [7]) it was 3%; in assay [4] (setting [8]), 22%.

Regarding `COc1ccc(-n2nc(C(=O)c3cccs3)cc(-c3nc4ccccc4[nH]3)c2=N)cc1` [compound 186925], the inhibition at 10 µM in assay [1] (setting [5]) is 1%; in assay [2] (setting [6]), 6%; in assay [3] (setting [7]) it was 3%; in assay [4] (setting [8]), -28%.

As to `Cc1ccc([N+](=O)[O-])cc1NC(=O)c1ccco1` [compound 107911], the inhibition at 10 µM in assay [1] (setting [9]) was 2%; in assay [2] (setting [10]), 8%; in assay [3] (setting [11]), -15%; in assay [4] (setting [12]), 7%.
